{"source": "patent US20160281050A1", "about": "“METHODS FOR TREATING A CULTURE OF HAEMATOCOCCUS PLUVIALIS FOR CONTAMINATION USING SALT AND HYDROGEN PEROXIDE” (HELIAE DEVELOPMENT LLC, priority 2015, published 2016)", "key": {"[1]": {"tested_on": "Haematococcus pluvialis (Strain 2)", "assay": "% cell lysis and culture dry weight in flasks, salt treatment (Example 12)", "format": "cell-based", "description": "This test was done side by side in flasks (0.1 L) and in reactors located in a greenhouse operating in conditions: reactor volume of 230 L; Daily PAR of 20 mol m^−2 d^−1; pH (not measured); and paddlewheel speed of 21 RPM. […] The flask cultures were mixed by shaking at 140 rpm and received 300-400 μmol/m^2 s of photosynthetically active radiation (PAR) in 12 hour light cycles and constant supply of 2.5% CO2. The motility of the culture was monitored by visual observation under a microscope. […] Nine 230 L reactors were also seeded with culture from bioreactor #2410 on the same day as the flasks and brought to 2 ppt concentration of salt. Once motility of the cells was reduced to <10% (day 3 of culture for flasks and day 2 for 230 L reactors) the level of salt was elevated to a point between 4-18 ppt and compared to the culture in two reactors remaining at 2 ppt salt. Flasks and 230 L reactors were monitored for percentage of cell lysis via visual observation under a microscope, culture dry weight (biomass accumulation in g/L), and percentage of chytrid infection via visual observation under a microscope. Carotenoid production, a proxy for determining astaxanthin, was quantified every other day of culture in the 230 L reactors using the UV method."}, "pure chytrid culture": {"tested_on": "pure chytrid culture", "assay": "Chytrid tolerance: pure chytrid culture in well plate, observed under a microscope (Examples 13-14)", "format": "cell-based", "description": "Experiments were performed to determine chytrid tolerance to bleach, salt, Lufenuron (chemical biocide), and Rid Fungus (blend of natural organic herbs) for evaluation as a treatment for chytrids. A pure chytrid culture in a well plate was treated every 24 hours and observed under a microscope to determine the effect. An untreated culture was used as a control for comparison purposes. Qualitative assessments and quantitative estimates were made by visual observation under a microscope.\nSeveral concentrations of salt and Rid Fungus (blend of organic herbs) were further investigated as a chytrid treatment, as in Example 13. A pure chytrid culture in a well plate was treated and visually observed under a microscope to determine the effect. An untreated culture was used as a control for comparison purposes."}}}
{"smiles": "[Cl-].[Na+]", "note": "[NaCl, sodium chloride]", "values": [{"measurement": "% Cell Lysis in Flasks", "setting": "[1]; 2 ppt, 9 d", "value": "0 ± 0", "unit": "%"}, {"measurement": "% Cell Lysis in Flasks", "setting": "[1]; 2 ppt, 11 d", "value": "0 ± 0", "unit": "%"}, {"measurement": "% Cell Lysis in Flasks", "setting": "[1]; 4 ppt, 9 d", "value": "0 ± 0", "unit": "%"}, {"measurement": "% Cell Lysis in Flasks", "setting": "[1]; 4 ppt, 11 d", "value": "0 ± 0", "unit": "%"}, {"measurement": "% Cell Lysis in Flasks", "setting": "[1]; 5 ppt, 9 d", "value": "0 ± 0", "unit": "%"}, {"measurement": "% Cell Lysis in Flasks", "setting": "[1]; 5 ppt, 11 d", "value": "1 ± 1", "unit": "%"}, {"measurement": "% Cell Lysis in Flasks", "setting": "[1]; 6 ppt, 9 d", "value": "4 ± 3", "unit": "%"}, {"measurement": "% Cell Lysis in Flasks", "setting": "[1]; 6 ppt, 11 d", "value": "5 ± 4", "unit": "%"}, {"measurement": "% Cell Lysis in Flasks", "setting": "[1]; 7 ppt, 9 d", "value": "0 ± 0", "unit": "%"}, {"measurement": "% Cell Lysis in Flasks", "setting": "[1]; 7 ppt, 11 d", "value": "7 ± 3", "unit": "%"}, {"measurement": "% Cell Lysis in Flasks", "setting": "[1]; 8 ppt, 9 d", "value": "3 ± 2", "unit": "%"}, {"measurement": "% Cell Lysis in Flasks", "setting": "[1]; 8 ppt, 11 d", "value": "2 ± 0", "unit": "%"}, {"measurement": "% Cell Lysis in Flasks", "setting": "[1]; 9 ppt, 9 d", "value": "0 ± 0", "unit": "%"}, {"measurement": "% Cell Lysis in Flasks", "setting": "[1]; 9 ppt, 11 d", "value": "2 ± 0", "unit": "%"}, {"measurement": "% Cell Lysis in Flasks", "setting": "[1]; 10 ppt, 9 d", "value": "1 ± 1", "unit": "%"}, {"measurement": "% Cell Lysis in Flasks", "setting": "[1]; 10 ppt, 11 d", "value": "3 ± 1", "unit": "%"}, {"measurement": "% Cell Lysis in Flasks", "setting": "[1]; 11 ppt, 9 d", "value": "0 ± 0", "unit": "%"}, {"measurement": "% Cell Lysis in Flasks", "setting": "[1]; 11 ppt, 11 d", "value": "1 ± 1", "unit": "%"}, {"measurement": "cell lysis", "setting": "[1]; flasks, all treatments", "value": "below 10%"}, {"measurement": "microscope observation of pure chytrid culture", "setting": "pure chytrid culture; Example 13, 20 ppt, after 1 hour", "value": "clumped sporangia and zoospores"}, {"measurement": "microscope observation of pure chytrid culture", "setting": "pure chytrid culture; Example 13, 20 ppt, after 24 hours", "value": "Wilting sporangia and no zoospores"}, {"measurement": "microscope observation of pure chytrid culture", "setting": "pure chytrid culture; Example 13, 20 ppt, after 48 hours", "value": "bacteria with shriveled zoospores and sporangia"}, {"measurement": "microscope observation of pure chytrid culture", "setting": "pure chytrid culture; Example 13, 20 ppt, after 72 hours", "value": "no zoospores or sporangia"}, {"measurement": "microscope observation of pure chytrid culture", "setting": "pure chytrid culture; Example 14, 5 ppt, after 1 hour", "value": "a less dense mass of zoospores with some being motile but sluggish"}, {"measurement": "microscope observation of pure chytrid culture", "setting": "pure chytrid culture; Example 14, 5 ppt, after 4.5 hours", "value": "A mix of non-motile and motile zoospores"}, {"measurement": "microscope observation of pure chytrid culture", "setting": "pure chytrid culture; Example 14, 10 ppt, after 1 hour", "value": "a mass of zoospores at the same density as the 5 ppt treatment but with all being non-motile"}, {"measurement": "microscope observation of pure chytrid culture", "setting": "pure chytrid culture; Example 14, 10 ppt, after 4.5 hours", "value": "Non-motile zoospores only"}, {"measurement": "microscope observation of pure chytrid culture", "setting": "pure chytrid culture; Example 14, 20 ppt, after 1 hour", "value": "a mass of zoospores less dense than mass of the 5 and 10 ppt treatments but with all being non-motile"}, {"measurement": "microscope observation of pure chytrid culture", "setting": "pure chytrid culture; Example 14, 20 ppt, after 4.5 hours", "value": "Non-motile zoospores only"}]}
